Source: PubChem BioAssay (NCI)
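GI50 = concentration required for 50% inhibition of growth. TGI marks complete inhibition of growth.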

Legend:
Assay in all cases: inhibition of tumour cell growth, NCI panel, 384-well format
OVCAR-8 ovarian = test system: OVCAR-8 ovarian
MDA-MB-468 breast = test system: MDA-MB-468 breast
IGROV1 ovarian = test system: IGROV1 ovarian
NCI-H522 lung = test system: NCI-H522 lung
BT-549 breast = test system: BT-549 breast
CCRF-CEM leukemia = test system: CCRF-CEM leukemia
SNB-19 CNS = test system: SNB-19 CNS
KM12 colon = test system: KM12 colon
SF-268 CNS = test system: SF-268 CNS
HL-60(TB) leukemia = test system: HL-60(TB) leukemia
SK-MEL-5 melanoma = test system: SK-MEL-5 melanoma
MOLT-4 leukemia = test system: MOLT-4 leukemia
A498 renal = test system: A498 renal
HOP-92 NSCLC = test system: HOP-92 NSCLC
SW-620 colon = test system: SW-620 colon
OVCAR-4 ovarian = test system: OVCAR-4 ovarian
MCF7 breast = test system: MCF7 breast
UACC-257 melanoma = test system: UACC-257 melanoma
M14 melanoma = test system: M14 melanoma
OVCAR-5 ovarian = test system: OVCAR-5 ovarian
COLO 205 colon = test system: COLO 205 colon
SK-OV-3 ovarian = test system: SK-OV-3 ovarian
A549 NSCLC = test system: A549 NSCLC
TK-10 renal = test system: TK-10 renal
HS 578T breast = test system: HS 578T breast
NCI-H322M lung = test system: NCI-H322M lung
SF-539 CNS = test system: SF-539 CNS
SN12C renal = test system: SN12C renal
EKVX NSCLC = test system: EKVX NSCLC
NCI-H460 NSCLC = test system: NCI-H460 NSCLC
SNB-75 CNS = test system: SNB-75 CNS
DU-145 prostate = test system: DU-145 prostate
RPMI-8226 leukemia = test system: RPMI-8226 leukemia
UACC-62 melanoma = test system: UACC-62 melanoma
NCI-H23 lung = test system: NCI-H23 lung
SF-295 CNS = test system: SF-295 CNS
NCI-H226 lung = test system: NCI-H226 lung
ACHN renal = test system: ACHN renal
786-0 renal = test system: 786-0 renal
HT29 colon = test system: HT29 colon
UO-31 renal = test system: UO-31 renal
NCI/ADR-RES ovarian = test system: NCI/ADR-RES ovarian
CAKI-1 renal = test system: CAKI-1 renal
HOP-62 NSCLC = test system: HOP-62 NSCLC
MDA-MB-231 breast = test system: MDA-MB-231 breast
RXF 393 renal = test system: RXF 393 renal
OVCAR-3 ovarian = test system: OVCAR-3 ovarian
HCT-116 colon = test system: HCT-116 colon
T-47D breast = test system: T-47D breast
MDA-MB-435 melanoma = test system: MDA-MB-435 melanoma
LOX IMVI melanoma = test system: LOX IMVI melanoma
PC-3 prostate = test system: PC-3 prostate
HCC-2998 colon = test system: HCC-2998 colon
MALME-3M melanoma = test system: MALME-3M melanoma
SK-MEL-28 melanoma = test system: SK-MEL-28 melanoma
U251 glioblastoma = test system: U251 glioblastoma
HCT-15 colon = test system: HCT-15 colon
SR leukemia = test system: SR leukemia

Compound `CCN(c1cc(-c2ccc(CN3CCOCC3)cc2)cc(C(=O)NCc2c(C)cc(C)[nH]c2=O)c1C)C1CCOCC1` has a GI50 (OVCAR-8 ovarian) greater than 100 µM, a TGI (OVCAR-8 ovarian) greater than 100 µM and a GI50 (MDA-MB-468 breast) greater than 100 µM. The TGI (MDA-MB-468 breast) was greater than 100 µM, the GI50 (IGROV1 ovarian) was greater than 91.5 µM and the TGI (IGROV1 ovarian) was greater than 100 µM. It also gave a GI50 (NCI-H522 lung) greater than 100 µM, a TGI (NCI-H522 lung) greater than 100 µM and a GI50 (BT-549 breast) greater than 37.1 µM. For the same compound, the TGI (BT-549 breast) was greater than 63.9 µM, the GI50 (CCRF-CEM leukemia) was greater than 100 µM and the TGI (CCRF-CEM leukemia) was greater than 100 µM. The GI50 (SNB-19 CNS) was greater than 100 µM, the TGI (SNB-19 CNS) was greater than 100 µM and the GI50 (KM12 colon) was greater than 100 µM. It also gave a TGI (KM12 colon) greater than 100 µM, a GI50 (SF-268 CNS) greater than 100 µM and a TGI (SF-268 CNS) greater than 100 µM. The GI50 (HL-60(TB) leukemia) was greater than 49.7 µM, the TGI (HL-60(TB) leukemia) was greater than 85.8 µM and the GI50 (SK-MEL-5 melanoma) was greater than 100 µM. For the same compound, the TGI (SK-MEL-5 melanoma) was greater than 100 µM, the GI50 (MOLT-4 leukemia) was 68.4 µM and the TGI (MOLT-4 leukemia) was greater than 100 µM. For the same compound, the GI50 (A498 renal) was greater than 81.8 µM, the TGI (A498 renal) was greater than 100 µM and the GI50 (HOP-92 NSCLC) was greater than 90.3 µM. For the same compound, the TGI (HOP-92 NSCLC) was greater than 100 µM, the GI50 (SW-620 colon) was greater than 100 µM and the TGI (SW-620 colon) was greater than 100 µM. It also gave a GI50 (OVCAR-4 ovarian) greater than 100 µM, a TGI (OVCAR-4 ovarian) greater than 100 µM and a GI50 (MCF7 breast) greater than 100 µM. The TGI (MCF7 breast) was greater than 100 µM, the GI50 (UACC-257 melanoma) was greater than 100 µM and the TGI (UACC-257 melanoma) was greater than 100 µM. It also gave a GI50 (M14 melanoma) greater than 100 µM, a TGI (M14 melanoma) greater than 100 µM and a GI50 (OVCAR-5 ovarian) greater than 100 µM. For the same compound, the TGI (OVCAR-5 ovarian) was greater than 100 µM, the GI50 (COLO 205 colon) was greater than 100 µM and the TGI (COLO 205 colon) was greater than 100 µM. The GI50 (SK-OV-3 ovarian) was greater than 100 µM, the TGI (SK-OV-3 ovarian) was greater than 100 µM and the GI50 (A549 NSCLC) was greater than 76.9 µM. It also gave a TGI (A549 NSCLC) greater than 100 µM, a GI50 (TK-10 renal) greater than 100 µM and a TGI (TK-10 renal) greater than 100 µM. The GI50 (HS 578T breast) was greater than 100 µM, the TGI (HS 578T breast) was greater than 100 µM and the GI50 (NCI-H322M lung) was greater than 100 µM. The TGI (NCI-H322M lung) was greater than 100 µM, the GI50 (SF-539 CNS) was greater than 100 µM and the TGI (SF-539 CNS) was greater than 100 µM. The GI50 (SN12C renal) was greater than 100 µM, the TGI (SN12C renal) was greater than 100 µM and the GI50 (EKVX NSCLC) was greater than 100 µM. For the same compound, the TGI (EKVX NSCLC) was greater than 100 µM, the GI50 (NCI-H460 NSCLC) was greater than 100 µM and the TGI (NCI-H460 NSCLC) was greater than 100 µM. The GI50 (SNB-75 CNS) was greater than 100 µM, the TGI (SNB-75 CNS) was greater than 100 µM and the GI50 (DU-145 prostate) was greater than 100 µM. It also gave a TGI (DU-145 prostate) greater than 100 µM, a GI50 (RPMI-8226 leukemia) of 1.39 µM and a TGI (RPMI-8226 leukemia) greater than 100 µM. The GI50 (UACC-62 melanoma) was greater than 100 µM, the TGI (UACC-62 melanoma) was greater than 100 µM and the GI50 (NCI-H23 lung) was greater than 100 µM. The TGI (NCI-H23 lung) was greater than 100 µM, the GI50 (SF-295 CNS) was greater than 100 µM and the TGI (SF-295 CNS) was greater than 100 µM. It also gave a GI50 (NCI-H226 lung) greater than 100 µM, a TGI (NCI-H226 lung) greater than 100 µM and a GI50 (ACHN renal) greater than 100 µM. For the same compound, the TGI (ACHN renal) was greater than 100 µM, the GI50 (786-0 renal) was greater than 85.4 µM and the TGI (786-0 renal) was greater than 100 µM. The GI50 (HT29 colon) was greater than 100 µM, the TGI (HT29 colon) was greater than 100 µM and the GI50 (UO-31 renal) was greater than 100 µM. For the same compound, the TGI (UO-31 renal) was greater than 100 µM, the GI50 (NCI/ADR-RES ovarian) was greater than 100 µM and the TGI (NCI/ADR-RES ovarian) was greater than 100 µM. It also gave a GI50 (CAKI-1 renal) greater than 69.4 µM, a TGI (CAKI-1 renal) greater than 100 µM and a GI50 (HOP-62 NSCLC) greater than 100 µM. The TGI (HOP-62 NSCLC) was greater than 100 µM, the GI50 (MDA-MB-231 breast) was greater than 100 µM and the TGI (MDA-MB-231 breast) was greater than 100 µM. It also gave a GI50 (RXF 393 renal) greater than 60.3 µM, a TGI (RXF 393 renal) greater than 100 µM and a GI50 (OVCAR-3 ovarian) greater than 100 µM. The TGI (OVCAR-3 ovarian) was greater than 100 µM, the GI50 (HCT-116 colon) was greater than 77.3 µM and the TGI (HCT-116 colon) was greater than 100 µM. For the same compound, the GI50 (T-47D breast) was greater than 100 µM, the TGI (T-47D breast) was greater than 100 µM and the GI50 (MDA-MB-435 melanoma) was greater than 100 µM. For the same compound, the TGI (MDA-MB-435 melanoma) was greater than 100 µM, the GI50 (LOX IMVI melanoma) was greater than 51.5 µM and the TGI (LOX IMVI melanoma) was greater than 100 µM. For the same compound, the GI50 (PC-3 prostate) was greater than 100 µM, the TGI (PC-3 prostate) was greater than 100 µM and the GI50 (HCC-2998 colon) was greater than 100 µM. The TGI (HCC-2998 colon) was greater than 100 µM, the GI50 (MALME-3M melanoma) was greater than 100 µM and the TGI (MALME-3M melanoma) was greater than 100 µM. The GI50 (SK-MEL-28 melanoma) was greater than 100 µM, the TGI (SK-MEL-28 melanoma) was greater than 100 µM and the GI50 (U251 glioblastoma) was greater than 100 µM. The TGI (U251 glioblastoma) was greater than 100 µM, the GI50 (HCT-15 colon) was 98.3 µM and the TGI (HCT-15 colon) was greater than 100 µM. It also gave a GI50 (SR leukemia) greater than 75.7 µM and a TGI (SR leukemia) greater than 100 µM.
